SMILES strings stand for the structures.

The record followed here is ChEMBL document CHEMBL1125997 (Bioorg Med Chem Lett, 1991).

The species entered for the test is Cavia porcellus. Kind of test: Inhibition of histamine-inducedcontraction of the isolated guinea-pig ileum. The format is functional. The settings on record: read-out: pA2 (converted).
In the case of `CC(C)(C)c1ccc([C@@H](O)CCCN2CCC(C(O)(c3ccccc3)c3ccccc3)CC2)cc1`, the Kb is 19.1 nM.

On to `CC(C)(C)c1ccc([C@H](O)CCCN2CCC(C(O)(c3ccccc3)c3ccccc3)CC2)cc1` [R-TERFENADINE], for which the Kb was 24.5 nM.

As to `CC(C)(C)c1ccc(C(O)CCCN2CCC(C(O)(c3ccccc3)c3ccccc3)CC2)cc1` (stereo not drawn) [TERFENADINE], the Kb is 22.4 nM.
